Tested on: Human lung adenocarcinoma cell line A549
Test: In vitro cytotoxicity test of camptothecin payloads (CellTiter-Glo)
Format: cell-based
Details: for IC50: Homo sapiens, A549, 72 h, read-out: A549 Cytotoxicity IC50 (nM); for relative A549 cytotoxic potency in words: human, 3 days
Description: Human lung adenocarcinoma cell line A549 was used to evaluate the cytotoxicity of small molecule fragment of the present invention. A549 cells were seeded to a 96-well plate at 2000 cells per well.

SMILES	IC50 [nM]	relative A549 cytotoxic potency in words
CC[C@@]1(O)C(=O)OCc2c1cc1n(c2=O)Cc2c-1nc1cc(F)c(F)cc1c2CN1CCC([C@@H](C)O)CC1 [Example 37, (S)-4-ethyl-8,9-difluoro-4-hydroxy-11-((4-((R)-1-hydroxyethyl)piperidin-1-yl)methyl)-1,12-dihydro-14H-pyrano[3′,4′:6,7] indolizino[1,2-b]quinoline-3,14(4H)-dione]	29	–
CC[C@@]1(O)C(=O)OCc2c1cc1n(c2=O)Cc2c-1nc1cc(F)c(C)cc1c2CN1CCC[C@H](O)C1 [Example 19, (S)-4-ethyl-8-fluoro-4-hydroxy-11-(((S)-3-hydroxypiperidin-1-yl)methyl)-9-methyl-1H-pyrano[3′,4′:6,7] indolizino[1,2-b]quinoline-3,14(4H,12H)-dione]	15.7	more potent than Example 17
CC[C@@]1(O)C(=O)OCc2c1cc1n(c2=O)Cc2c-1nc1cc3c(cc1c2CN1CCC([C@@H](C)O)CC1)OCCO3 [Example 36]	38.4	–
CC[C@@]1(O)C(=O)OCc2c1cc1n(c2=O)Cc2c-1nc1cc(F)c(C)cc1c2CN1CCC(C(C)O)CC1 (stereo partly drawn) [Example 13, (4S)-4-ethyl-8-fluoro-4-hydroxy-11-((4-(1-hydroxyethyl)piperidin-1-yl)methyl)-9-methyl-1H-pyrano[3′,4′:6,7] indolizino[1,2-b]quinoline-3,14(4H,12H)-dione]	33	–
CC[C@@]1(O)C(=O)OCc2c1cc1n(c2=O)Cc2c-1nc1cc(F)c(C)c3c1c2[C@@H](NC(=O)CO)CC3 [Dxd, reference compound]	78	–
CC[C@@]1(O)C(=O)OCc2c1cc1n(c2=O)Cc2c-1nc1cc(F)c(C)cc1c2CN1CCC[C@@H](O)C1 [Example 18, (S)-4-ethyl-8-fluoro-4-hydroxy-11-(((R)-3-hydroxypiperidin-1-yl)methyl)-9-methyl-1H-pyrano[3′,4′:6,7] indolizino[1,2-b]quinoline-3,14(4H,12H)-dione]	19.7	–
CC[C@@]1(O)C(=O)OCc2c1cc1n(c2=O)Cc2c-1nc1cc(F)c(C)cc1c2CN1C2CCC1(CO)CC2 [Example 20, (S)-4-ethyl-8-fluoro-4-hydroxy-11-((1-(hydroxymethyl)-7-azabicyclo[2.2.1]heptan-7-yl)methyl)-9-methyl-1H-pyrano[3′,4′:6,7] indolizino[1,2-b]quinoline-3,14(4H,12H)-dione]	24.1	–
CC[C@@]1(O)C(=O)OCc2c1cc1n(c2=O)Cc2c-1nc1cc(F)c(C)cc1c2CN1CCCC1CO (stereo partly drawn) [Example 5, (4S)-4-ethyl-8-fluoro-4-hydroxy-11-((2-(hydroxymethyl)pyrrolidin-1-yl)methyl)-9-methyl-1H-pyrano[3′,4′:6,7] indolizino[1,2-b]quinoline-3,14(4H,12H)-dione]	65	–
CC[C@@]1(O)C(=O)OCc2c1cc1n(c2=O)Cc2c-1nc1cc(F)c(C)cc1c2CN1CCCCC1CO (stereo partly drawn) [Example 11, (4S)-4-ethyl-8-fluoro-4-hydroxy-11-((2-(hydroxymethyl)piperidin-1-yl)methyl)-9-methyl-1H-pyrano[3′,4′:6,7] indolizino[1,2-b]quinoline-3,14(4H,12H)-dione]	60	less potent than Example 17
CC[C@@]1(O)C(=O)OCc2c1cc1n(c2=O)Cc2c-1nc1cc(F)c(C)cc1c2CN1CC(O)C1 [Example 9, (S)-4-ethyl-8-fluoro-4-hydroxy-11-((3-hydroxyazetidin-1-yl)methyl)-9-methyl-1H-pyrano[3′,4′:6,7] indolizino[1,2-b]quinoline-3,14(4H,12H)-dione]	550	–

Source: patent US20250367308A1, “LIGAND-DRUG CONJUGATE OF CAMPTOTHECIN ANALOGS, INTERMEDIATES, PREPARATION METHOD THEREFOR, PHARMACEUTICAL COMPOSITION AND APPLICATION THEREOF” (SHANGHAI MICURX PHARMACEUTICAL CO.,LTD., priority 2022, published 2025)
